According to patent US8173841B2, “Tetrahydro-naphthalene derivatives” (Xention Limited, priority 2003, dated 2012):

What was measured:
human VR1 = molecular target: T1, human VR1 (Homo sapiens, UniProt Q8NER1); assay: Capsaicin-induced Ca2+ influx in the human VR1-transfected CHO cell line (Assay 1); format: cell-based; conditions: human VR1-CHOluc9aeq cells, stimulation with 10 nM capsaicin, Fluo-3 AM / FDSS-3000; compounds of purity about 40 to 90%; read-out: Activity Class (IC50 of capsaicin-induced Ca2+ influx)
T1 construct: expressed in transfected cells
T1 sequence (Q8NER1 whole entry): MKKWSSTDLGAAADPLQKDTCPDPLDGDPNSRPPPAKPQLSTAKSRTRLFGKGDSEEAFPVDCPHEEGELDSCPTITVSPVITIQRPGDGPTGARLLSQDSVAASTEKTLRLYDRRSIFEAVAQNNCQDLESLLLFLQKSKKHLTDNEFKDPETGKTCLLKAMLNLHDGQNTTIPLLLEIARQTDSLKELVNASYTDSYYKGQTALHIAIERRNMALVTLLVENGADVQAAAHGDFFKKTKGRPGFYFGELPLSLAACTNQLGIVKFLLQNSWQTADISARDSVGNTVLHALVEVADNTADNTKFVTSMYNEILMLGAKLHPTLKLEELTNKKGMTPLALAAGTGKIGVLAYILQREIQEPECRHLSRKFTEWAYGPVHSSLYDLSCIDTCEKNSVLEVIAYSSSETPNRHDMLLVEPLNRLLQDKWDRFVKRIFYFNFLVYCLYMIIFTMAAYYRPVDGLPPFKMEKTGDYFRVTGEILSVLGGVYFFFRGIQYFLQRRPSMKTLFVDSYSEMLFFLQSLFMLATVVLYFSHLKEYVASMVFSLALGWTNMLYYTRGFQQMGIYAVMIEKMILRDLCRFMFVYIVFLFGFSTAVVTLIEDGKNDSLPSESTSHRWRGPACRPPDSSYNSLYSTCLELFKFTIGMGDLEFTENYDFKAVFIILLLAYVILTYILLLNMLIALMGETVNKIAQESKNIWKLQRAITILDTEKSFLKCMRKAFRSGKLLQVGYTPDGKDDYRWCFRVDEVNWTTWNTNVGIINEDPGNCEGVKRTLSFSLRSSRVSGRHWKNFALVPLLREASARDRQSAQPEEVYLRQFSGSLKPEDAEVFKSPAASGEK
Description: [Measurement of Capsaicin-Induced Ca^2+ Influx in the Human VR1-Transfected CHO Cell Line] (Assay 1)
(1) Establishment of the Human VR1-CHOluc9aeq Cell Line
Human vanilloid receptor (hVR1) cDNA was cloned from libraries of axotomized dorsal root ganglia (WO 00/29577). The cloned hVR1 cDNA was constructed with pcDNA3 vector and transfected into a CHOluc9aeq cell line. The cell line contains aequorin and CRE-luciferase reporter genes as read-out signals. The transfectants were cloned by limiting dilution in selection medium (DMEM/F12 medium (Gibco BRL) supplemented with 10% FCS, 1.4 mM Sodium pyruvate, 20 mM HEPES, 0.15% Sodium bicarbonate, 100 U/ml penicillin, 100 μg/ml streptomycin, 2 mM glutamine, non-essential amino acids and 2 mg/ml G418). Ca^2+ influx was examined in the capsaicin-stimulated clones. A high responder clone was selected and used for further experiments in the project. The human VR1-CHOluc9aeq cells were maintained in the selection medium and passaged every 3-4 days at 1−2.5×10^5 cells/flask ([…]).
(2) Measurement of Ca^2+ influx using FDSS-3000
Human VR1-CHOluc9aeq cells were suspended in a culture medium which is the same as the selection medium except for G418 and seeded at a density of 1,000 cells per well into 384-well plates (black walled clear-base/Nalge Nunc International). Following the culture for 48 hrs the medium was changed to 2 μM Fluo-3 AM (Molecular Probes) and 0.02% Puronic F-127 in assay buffer (Hank's balanced salt solution (HBSS), 17 mM HEPES (pH7.4), 1 mM Probenecid, 0.1% BSA) and the cells were incubated for 60 min at 25° C. After washing twice with assay buffer the cells were incubated with a test compound or vehicle for 20 min at 25° C. Mobilization of cytoplasmic Ca^2+ was measured by FDSS-3000 (λex=488 nm, λem=540 nm/Hamamatsu Photonics) for 60 sec after the stimulation with 10 nM capsaicin. Integral R was calculated and compared with controls.
The data corresponds to the compounds as yielded by solid phase synthesis and thus to levels of purity of about 40 to 90%. For practical reasons, the compounds are grouped in four classes of activity as follows: IC50=A (< or =) 0.1 μM<B (< or =) 0.5 μM<C (< or =) 1 μM<D

melting point | IC50 (human VR1) [nM] | Structure (SMILES)
187 to 188 °C | < 100 | O=C(NCc1ccc(-c2ccccc2F)cc1)Nc1cccc2c1CC(O)CC2 (stereo not drawn) [Example 1-48]
195 to 196 °C | < 100 | CSc1ccc(-c2cccc(CNC(=O)Nc3cccc4c3CC(O)CC4)c2)cc1 (stereo not drawn) [Example 1-68]
222.1 to 225 °C | < 100 | CN(C)c1ccc(-c2ccc(C(=O)Nc3cccc4c3CC(O)CC4)cc2)cc1 (stereo not drawn) [Example 2-2]
181 to 182 °C | < 100 | Cc1ccc(C)c(-c2ccc(CNC(=O)Nc3cccc4c3CC(O)CC4)cc2)c1 (stereo not drawn) [Example 1-37]
191 to 192 °C | < 100 | O=C(NCc1ccc(-c2ccc(F)c(F)c2)cc1)Nc1cccc2c1CC(O)CC2 (stereo not drawn) [Example 1-41]
123 to 124 °C | < 100 | COc1ccc(OC)c(-c2cccc(CNC(=O)Nc3cccc4c3CC(O)CC4)c2)c1 (stereo not drawn) [Example 1-60]
204 to 205 °C | < 100 | O=C(NCc1ccc(-c2c(F)cccc2F)cc1)Nc1cccc2c1CC(O)CC2 (stereo not drawn) [Example 1-50]
194 to 195 °C | < 100 | O=C(NCc1cccc(-c2ccc(F)cc2)c1)Nc1cccc2c1CC(O)CC2 (stereo not drawn) [Example 1-55]
188 to 189 °C | < 100 | O=C(NCc1cccc(-c2ccc(F)c(Cl)c2)c1)Nc1cccc2c1CC(O)CC2 (stereo not drawn) [Example 1-71]
202 to 203 °C | < 100 | CC(C)c1ccc(-c2ccc(CNC(=O)Nc3cccc4c3CC(O)CC4)cc2)cc1 (stereo not drawn) [Example 1-52]
228 °C | < 100 | O=C(Nc1cccc(-c2ccc(F)cc2)c1)Nc1cccc2c1CC(O)CC2 (stereo not drawn) [Example 1-16]
202 to 203 °C | < 100 | CC(C)c1ccc(-c2cccc(CNC(=O)Nc3cccc4c3CC(O)CC4)c2)cc1 (stereo not drawn) [Example 1-70]
210 °C | < 100 | O=C(Nc1cccc(-c2ccc(OC(F)(F)F)cc2)c1)Nc1cccc2c1CC(O)CC2 (stereo not drawn) [Example 1-25]
208 to 209 °C | < 100 | O=C(NCc1cccc(-c2cc(C(F)(F)F)cc(C(F)(F)F)c2)c1)Nc1cccc2c1CC(O)CC2 (stereo not drawn) [Example 1-59]
129 to 130 °C | < 100 | COc1ccccc1-c1cccc(CNC(=O)Nc2cccc3c2CC(O)CC3)c1 (stereo not drawn) [Example 1-61]
141 to 142 °C | < 100 | O=C(NCc1cccc(-c2c(F)cccc2F)c1)Nc1cccc2c1CC(O)CC2 (stereo not drawn) [Example 1-69]
215 °C | < 100 | CN(C)c1ccc(-c2cccc(NC(=O)Nc3cccc4c3CC(O)CC4)c2)cc1 (stereo not drawn) [Example 1-26]
223 to 224 °C | < 100 | COc1ccc(-c2cccc(CNC(=O)Nc3cccc4c3CC(O)CC4)c2)cc1OC (stereo not drawn) [Example 1-62]
> 134 °C (dec.) | 500 to 1000 | O=C(Cc1cccc(-c2ccccc2)c1)Nc1cccc2c1CC(O)CC2 (stereo not drawn) [Example 3-1, 2-Biphenyl-3-yl-N-(7-hydroxy-5,6,7,8-tetrahydronaphthalen-1-yl)acetamide]
203 °C | < 100 | COc1ccc(-c2cccc(NC(=O)Nc3cccc4c3CC(O)CC4)c2)cc1 (stereo not drawn) [Example 1-14]
197 to 198 °C | < 100 | Cc1cc(C)cc(-c2cccc(CNC(=O)Nc3cccc4c3CC(O)CC4)c2)c1 (stereo not drawn) [Example 1-67]
210.4 to 212.7 °C | < 100 | O=C(Nc1cccc2c1CC(O)CC2)c1ccc(-c2ccc(F)c(F)c2)cc1 (stereo not drawn) [Example 2-1, 3′,4′-Difluoro-N-(7-hydroxy-5,6,7,8-tetrahydronaphthalen-1-yl)biphenyl-4-carboxamide]
204 °C | < 100 | O=C(Nc1cccc(-c2cccc(Cl)c2Cl)c1)Nc1cccc2c1CC(O)CC2 (stereo not drawn) [Example 1-20]
204 to 205 °C | < 100 | O=C(NCc1ccc(-c2cc(Cl)cc(Cl)c2)cc1)Nc1cccc2c1CC(O)CC2 (stereo not drawn) [Example 1-53]
